Active and inactive are the calls of the source. The rule behind the calls is not given here.
Assays:
[1] = target: Protein arginine N-methyltransferase 5 (Homo sapiens, UniProt O14744); assay: Inhibition of PRMT5 (unknown origin)
[2] = target: T1, Histone-lysine N-methyltransferase EHMT1 (Homo sapiens, UniProt Q9H9B1); assay: Inhibition of GLP (unknown origin) by AlphaLISA assay
T1 sequence (Q9H9B1 whole entry): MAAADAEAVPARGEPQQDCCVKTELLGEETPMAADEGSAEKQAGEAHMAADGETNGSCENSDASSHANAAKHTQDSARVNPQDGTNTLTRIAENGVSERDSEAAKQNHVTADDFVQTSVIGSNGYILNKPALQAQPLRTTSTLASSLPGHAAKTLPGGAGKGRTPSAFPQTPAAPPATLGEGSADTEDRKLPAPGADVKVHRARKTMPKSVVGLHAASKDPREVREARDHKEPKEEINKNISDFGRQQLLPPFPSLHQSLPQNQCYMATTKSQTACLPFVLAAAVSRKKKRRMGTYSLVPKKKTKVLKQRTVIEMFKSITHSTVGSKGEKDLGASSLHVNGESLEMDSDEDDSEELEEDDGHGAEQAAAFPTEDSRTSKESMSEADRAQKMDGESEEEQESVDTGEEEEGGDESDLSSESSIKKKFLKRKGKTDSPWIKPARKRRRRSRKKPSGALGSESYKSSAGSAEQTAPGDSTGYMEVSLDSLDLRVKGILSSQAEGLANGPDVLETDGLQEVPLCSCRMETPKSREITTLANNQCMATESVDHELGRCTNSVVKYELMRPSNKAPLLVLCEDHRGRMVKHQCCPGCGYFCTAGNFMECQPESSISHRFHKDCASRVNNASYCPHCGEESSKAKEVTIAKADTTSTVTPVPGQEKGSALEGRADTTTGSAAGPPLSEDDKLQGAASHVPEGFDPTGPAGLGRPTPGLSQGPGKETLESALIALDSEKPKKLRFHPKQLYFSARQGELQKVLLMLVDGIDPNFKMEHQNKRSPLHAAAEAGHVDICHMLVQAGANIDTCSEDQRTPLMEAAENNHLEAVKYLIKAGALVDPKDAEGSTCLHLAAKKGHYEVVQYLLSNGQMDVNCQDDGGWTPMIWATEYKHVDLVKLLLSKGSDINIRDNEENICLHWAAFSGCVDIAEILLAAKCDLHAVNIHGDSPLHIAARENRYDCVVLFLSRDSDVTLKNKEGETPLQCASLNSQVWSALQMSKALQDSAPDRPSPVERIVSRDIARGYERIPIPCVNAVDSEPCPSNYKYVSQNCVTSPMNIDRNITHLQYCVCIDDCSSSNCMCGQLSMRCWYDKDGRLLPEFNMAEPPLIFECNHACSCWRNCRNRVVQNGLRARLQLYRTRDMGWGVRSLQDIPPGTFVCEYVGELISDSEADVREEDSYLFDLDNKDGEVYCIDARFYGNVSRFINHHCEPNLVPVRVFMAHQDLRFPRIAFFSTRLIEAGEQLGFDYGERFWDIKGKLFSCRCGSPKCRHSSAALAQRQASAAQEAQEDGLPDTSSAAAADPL

MDA-MB-231 [3] = assay: Antiproliferative activity against human MDA-MB-231 cells assessed as cell viability measured after 24 hrs by CCK-8 assay; assay type: functional, cell-based; conditions: MDA-MB-231, 24 h
[4] = target: T2, Histone-arginine methyltransferase CARM1 (Homo sapiens, UniProt Q86X55); assay: Inhibition of PRMT4 (unknown origin)
T2 sequence (Q86X55 whole entry): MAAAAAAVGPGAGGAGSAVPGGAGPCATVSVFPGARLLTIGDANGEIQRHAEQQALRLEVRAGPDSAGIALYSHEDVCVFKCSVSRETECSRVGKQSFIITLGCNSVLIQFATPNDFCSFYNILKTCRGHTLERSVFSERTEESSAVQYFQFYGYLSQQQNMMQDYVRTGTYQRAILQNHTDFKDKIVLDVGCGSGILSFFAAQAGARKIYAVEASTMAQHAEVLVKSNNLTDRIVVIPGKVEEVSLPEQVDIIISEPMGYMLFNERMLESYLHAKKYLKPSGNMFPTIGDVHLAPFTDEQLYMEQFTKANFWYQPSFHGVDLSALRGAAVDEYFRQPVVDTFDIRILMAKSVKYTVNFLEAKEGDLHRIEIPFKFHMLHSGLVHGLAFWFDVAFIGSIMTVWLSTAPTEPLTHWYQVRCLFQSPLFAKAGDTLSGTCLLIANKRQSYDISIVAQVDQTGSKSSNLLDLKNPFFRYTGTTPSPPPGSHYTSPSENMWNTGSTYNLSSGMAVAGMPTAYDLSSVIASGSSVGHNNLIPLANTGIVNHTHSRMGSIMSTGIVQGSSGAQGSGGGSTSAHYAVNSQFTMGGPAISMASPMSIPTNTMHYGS

PANC-1 = assay: Inhibition of colony formation in human PANC-1 cells at […] incubated for 14 days drug medium changed for every 2 days by crystal violet staining based analysis; assay type: cell-based; conditions: dose 2.5 µM, time 14.0 day
MDA-MB-231 [5] = assay: Reduction in H3K9me2 level in human MDA-MB-231 cells at 10 uM incubated for 48 hrs followed replaced with fresh medium measured after 48 hrs by Western blot analysis; assay type: functional, cell-based

Chain of Protein arginine N-methyltransferase 5 (O14744 whole entry): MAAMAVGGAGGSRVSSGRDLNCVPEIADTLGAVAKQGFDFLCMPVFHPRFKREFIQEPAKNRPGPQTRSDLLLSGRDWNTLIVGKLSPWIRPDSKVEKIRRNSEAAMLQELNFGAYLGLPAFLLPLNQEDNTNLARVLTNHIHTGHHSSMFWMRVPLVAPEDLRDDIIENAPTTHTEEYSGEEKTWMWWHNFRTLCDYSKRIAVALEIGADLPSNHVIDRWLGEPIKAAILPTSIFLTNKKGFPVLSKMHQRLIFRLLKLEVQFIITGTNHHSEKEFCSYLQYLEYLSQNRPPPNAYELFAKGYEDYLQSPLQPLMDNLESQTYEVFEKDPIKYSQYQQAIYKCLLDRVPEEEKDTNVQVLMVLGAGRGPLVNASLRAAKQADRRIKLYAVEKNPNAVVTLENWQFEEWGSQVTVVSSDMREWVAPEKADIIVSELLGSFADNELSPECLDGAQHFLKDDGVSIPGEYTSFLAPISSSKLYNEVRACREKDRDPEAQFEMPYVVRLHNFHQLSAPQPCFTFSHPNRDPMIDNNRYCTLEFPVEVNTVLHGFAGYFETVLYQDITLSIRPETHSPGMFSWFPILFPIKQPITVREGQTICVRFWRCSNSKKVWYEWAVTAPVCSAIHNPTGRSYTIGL

IC50 [1]: > 20000 nM | IC50 [2]: 5 nM | IC50 (MDA-MB-231 [3]): 2880 nM | IC50 [4]: 6680 nM
Compound: C=CC(=O)N(C)c1nc(NC2CCN(C)CC2)c2cc(OC)c(OCCCN3CCCC3)cc2n1
inhibition (PANC-1): Active | inhibition (MDA-MB-231 [5]): inactive

Source: ChEMBL document CHEMBL5338815 (J Med Chem, 2023)
